Assay results from ChEMBL document CHEMBL1201862, “PubChem BioAssay data set” (2004).
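Assay format: 96-well plates, 48-hour exposure. Abbreviation: GI50, concentration required for 50% inhibition of growth.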 Active and inactive are the calls of the source. No stated cut-off is given here; in the data, active = GI50 up to about 1.1 µM and inactive = higher.

How the values were obtained:
Assay in all cases: NCI anticancer screen, dose series, 48 h
K562 = tested on: K562
MCF7 = tested on: MCF7
M14 = tested on: M14
Hs-578T = tested on: Hs-578T
SF-268 = tested on: SF-268
OVCAR-4 = tested on: OVCAR-4
Malme-3M = tested on: Malme-3M
NCI-H23 = tested on: NCI-H23
HL-60 = tested on: HL-60
U-251 = tested on: U-251
IGROV-1 = tested on: IGROV-1
COLO 205 = tested on: COLO 205
NCI-H460 = tested on: NCI-H460
SF-539 = tested on: SF-539
BT-549 = tested on: BT-549
RXF 393 = tested on: RXF 393
CCRF-CEM = tested on: CCRF-CEM
HT-29 = tested on: HT-29
PC-3 = tested on: PC-3
SR = tested on: SR

| SMILES | GI50 (K562) | GI50 (MCF7) | GI50 (M14) | GI50 (Hs-578T) | GI50 (SF-268) | GI50 (OVCAR-4) | GI50 (Malme-3M) | GI50 (NCI-H23) | GI50 (HL-60) | GI50 (U-251) | GI50 (IGROV-1) | GI50 (COLO 205) | GI50 (NCI-H460) | GI50 (SF-539) | GI50 (BT-549) | GI50 (RXF 393) | GI50 (CCRF-CEM) | GI50 (HT-29) | GI50 (PC-3) | GI50 (SR) |
| --- | --- | --- | --- | --- | --- | --- | --- | --- | --- | --- | --- | --- | --- | --- | --- | --- | --- | --- | --- | --- |
| O=C1C=CC2(C=C1)O[C@H](CCc1ccccc1)[C@@H](CCc1ccccc1)O2 | > 100 µM (inactive) | > 100 µM (inactive) | > 100 µM (inactive) | > 100 µM (inactive) | 61.8 µM (inactive) | 85.5 µM (inactive) | > 100 µM (inactive) | > 100 µM (inactive) | > 100 µM (inactive) | 20.2 µM (inactive) | 98.9 µM (inactive) | > 100 µM (inactive) | > 100 µM (inactive) | > 100 µM (inactive) | > 100 µM (inactive) | 24.3 µM (inactive) | > 100 µM (inactive) | > 100 µM (inactive) | > 100 µM (inactive) | > 100 µM (inactive) |
| CCNC(=O)Nc1cccc(C)n1 | > 100 µM (inactive) | > 100 µM (inactive) | > 100 µM (inactive) | > 100 µM (inactive) | > 100 µM (inactive) | > 100 µM (inactive) | > 100 µM (inactive) | > 100 µM (inactive) | 67.8 µM (inactive) | > 100 µM (inactive) | > 100 µM (inactive) | > 100 µM (inactive) | > 100 µM (inactive) | > 100 µM (inactive) | > 100 µM (inactive) | > 100 µM (inactive) | > 100 µM (inactive) | > 100 µM (inactive) | > 100 µM (inactive) | > 100 µM (inactive) |
| NCCCCNC1(c2cc3ccccc3s2)CCCCC1 | 1.59 µM (inactive) | 2.88 µM (inactive) | 1.98 µM (inactive) | 4.51 µM (inactive) | 6.24 µM (inactive) | 6.76 µM (inactive) | 1.88 µM (inactive) | 14.2 µM (inactive) | 3.09 µM (inactive) | 2.34 µM (inactive) | 3.08 µM (inactive) | 1.74 µM (inactive) | 2.62 µM (inactive) | 1.95 µM (inactive) | 11.8 µM (inactive) | 3.07 µM (inactive) | 1.69 µM (inactive) | 2.42 µM (inactive) | 4.9 µM (inactive) | 1.49 µM (inactive) |
| CC(C)(C)c1nc2c(o1)C(=O)c1ccccc1C2=O | 0.834 µM (active) | 0.485 µM (active) | 0.759 µM (active) | 0.927 µM (active) | 2.47 µM (inactive) | 0.853 µM (active) | 0.574 µM (active) | 0.373 µM (active) | 0.718 µM (active) | 1.72 µM (inactive) | 2.46 µM (inactive) | 4.81 µM (inactive) | 3.82 µM (inactive) | 1.12 µM (inactive) | 1.51 µM (inactive) | 2.08 µM (inactive) | 1.47 µM (inactive) | 3.9 µM (inactive) | 0.505 µM (active) | 3.16 µM (inactive) |
| CCOc1cc2oc(C)cc(=O)c2c(OC)c1/C=N/c1ccc(Cn2c(C)nc3ccccc32)cc1 | > 100 µM (inactive) | > 100 µM (inactive) | > 100 µM (inactive) | > 100 µM (inactive) | > 100 µM (inactive) | > 100 µM (inactive) | > 100 µM (inactive) | > 100 µM (inactive) | > 100 µM (inactive) | > 100 µM (inactive) | > 100 µM (inactive) | > 100 µM (inactive) | > 100 µM (inactive) | > 100 µM (inactive) | > 100 µM (inactive) | > 100 µM (inactive) | > 100 µM (inactive) | > 100 µM (inactive) | > 100 µM (inactive) | > 100 µM (inactive) |
| CC(C)C(C/C=C1/CC(CO)(COC(=O)CC(C(C)C)C(C)C)OC1=O)C(C)C (stereo not given) | 0.389 µM (active) | 13.6 µM (inactive) | 12.5 µM (inactive) | 0.102 µM (active) | 10.6 µM (inactive) | 17.3 µM (inactive) | 10.7 µM (inactive) | 14.7 µM (inactive) | 0.0931 µM (active) | 11.6 µM (inactive) | 17.1 µM (inactive) | 0.0811 µM (active) | 2.44 µM (inactive) | 11.2 µM (inactive) | 15 µM (inactive) | 11.1 µM (inactive) | 2.74 µM (inactive) | 16.3 µM (inactive) | 4.85 µM (inactive) | 17.1 µM (inactive) |
| CC1(C)O[C@@H]2COC(=O)[C@@H]2O1 | > 100 µM (inactive) | > 100 µM (inactive) | > 100 µM (inactive) | > 100 µM (inactive) | > 100 µM (inactive) | > 100 µM (inactive) | > 100 µM (inactive) | > 100 µM (inactive) | > 100 µM (inactive) | > 100 µM (inactive) | > 100 µM (inactive) | > 100 µM (inactive) | > 100 µM (inactive) | 2.95 µM (inactive) | > 100 µM (inactive) | > 100 µM (inactive) | > 100 µM (inactive) | > 100 µM (inactive) | > 100 µM (inactive) | > 100 µM (inactive) |
